The record followed here is PubChem BioAssay (NCI).

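The compound was tested at five concentrations on cells cultured in 96-well plates, with a 48-hour exposure period. TGI: concentration producing complete growth inhibition.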 Where a SMILES comes first, the peptide text is derived from it. The star is where a group is joined. Boc = CC(C)(C)OC(=O)*; OBn = c1ccc(CO*)cc1; Bn = c1ccc(C*)cc1 Some results are limits rather than exact numbers.

Assay in all cases: DTP human tumour cell line panel, 48 h
The test system of assay [1] is KM12 colon.
The subject of assay [2] is NCI-H23 lung.
In assay [3] the test system is A549 NSCLC.
The subject of assay [4] is RPMI-8226 leukemia.
In assay [5] the test system is HCC-2998 colon.
In assay [6] the test system is PC-3 prostate.
Assay [7] has as its system HT29 colon.
Assay [8] deals with MALME-3M melanoma.
For assay [9], the system named is HOP-92 NSCLC.
The subject of assay [10] is CCRF-CEM leukemia.

The TGI is the concentration giving total growth inhibition. A low value points to more potent growth arrest. For the compound `O=c1[nH]c(=O)n(COCCO)cc1-c1ccccc1`, the TGI in assay [1], in assay [2], in assay [3], in assay [4], in assay [5] and in assay [6] was over 100 µM throughout. Also, the total growth inhibition concentration (TGI) in assay [7], in assay [8], in [9] and in assay [10] was over 100 µM each time.

For `NC(=O)c1ccc(N)nc1`, the TGI in assay [1] was over 400 µM; in assay [2], over 400 µM; in [3], over 400 µM; in assay [4], 201 µM; in assay [5], over 400 µM; in [6], over 400 µM. In addition, the total growth inhibition concentration (TGI) in assay [7] is over 229 µM; in assay [8], over 400 µM; in assay [9], over 400 µM; in assay [10], 394 µM.

For the compound `Cn1c(=O)c2[nH]c(Nc3ccccc3)nc2n(C)c1=O`, the TGI in assay [1], in assay [2], in assay [3], in assay [4], in assay [5] and in [6] was over 10 µM throughout. For the same compound, the total growth inhibition concentration (TGI) in assay [7], in assay [8], in assay [9] and in assay [10] was over 10 µM in each case.

In the case of `CCOC(=O)C(NC(=O)Nc1ccccc1)(Nc1cccc(Cl)c1)C(F)(F)F` (stereo not given), the TGI in [1], in assay [2], in [3], in [4], in [5] and in assay [6] was over 100 µM in each case. In addition, the total growth inhibition concentration (TGI) in assay [7] is over 100 µM; in assay [8], over 100 µM; in [9] it was 94.6 µM; in [10] it was over 100 µM.

In the case of `Cc1cc(C)c2c(=O)n(CC(O)CN3CCN(c4ncccn4)CC3)sc2n1` (stereo not given), the TGI in assay [1] is 44.6 µM; in [2], 31.6 µM; in [3], 31.2 µM; in assay [4] it was 44 µM; in assay [5], 32.9 µM; in assay [6], 32.8 µM. Moreover, the TGI in assay [7] was 29.6 µM; in assay [8] it was 37.5 µM; in assay [9], over 100 µM; in [10], over 100 µM.

For `O=C(NCCc1ccc(F)cc1)c1cc(/C=C/c2cc(O)ccc2O)ccc1O`, the concentration for total growth inhibition (TGI) in assay [1] is 38 µM; in [2], 13.3 µM; in assay [3], over 100 µM; in assay [4], over 100 µM; in assay [5], 26 µM; in assay [6], 10.9 µM. The TGI in assay [7] is 62.1 µM; in [8], 5.92 µM; in [9] it was 3.97 µM; in assay [10] it was over 100 µM.

Take `NC(=O)c1ncn(C2CCC(CP(=O)(O)O)C2)c1N` (stereo not given): the concentration for total growth inhibition (TGI) in assay [1], in assay [2], in assay [3], in assay [4], in assay [5] and in [6] was over 100 µM throughout. Moreover, the concentration for total growth inhibition (TGI) in [7], in assay [8] and in assay [9] was over 100 µM in each case.

On to `CCOC(=O)C(C(N)=O)c1nc2cc([N+](=O)[O-])ccc2nc1/C=C(\O)c1ccc(C)cc1` (stereo not given), for which the TGI was over 100 µM in [1]; 34.3 µM in assay [2]; over 74.1 µM in assay [3]; 40.6 µM in assay [4]; 62.7 µM in [5]; 40.4 µM in assay [6]. In addition, the total growth inhibition concentration (TGI) was over 100 µM in [7], over 100 µM in assay [8], 40.8 µM in assay [9] and over 100 µM in [10].

On to `CCOC(=O)Cn1c(=O)c2cc(C)cc3c(Cl)nc4c(OC)c(OC)cc1c4c32`, for which the TGI in assay [1], in [2], in assay [3], in assay [4], in assay [5] and in assay [6] was over 100 µM each time. Moreover, the total growth inhibition concentration (TGI) in [7], in assay [8], in assay [9] and in assay [10] was over 100 µM throughout.

On to `O=C(CSCC(=O)N/N=C/c1ccc(F)cc1)N/N=C/c1ccc(F)cc1`, for which the TGI in assay [1], in [2], in assay [3], in [4], in assay [5] and in assay [6] was over 100 µM throughout. The concentration for total growth inhibition (TGI) in assay [7], in [8] and in [9] was over 100 µM in each case.

Take `COc1cc(/C=C/C(=O)OC[C@]23O[C@H]2[C@@H](OC2OC(C)C(O)C(O)C2O)C2C=CO[C@@H](OC4OC(CO)C(O)C(O)C4O)C23)ccc1O` (stereo not given in full): the TGI in assay [1], in assay [2], in [3], in assay [4], in [5] and in [6] was over 100 µM in each case. The TGI in [7], in assay [8] and in assay [9] was over 100 µM throughout.

`COC(=O)[C@@]12CC3CN(Cc4c1[nH]c1ccccc41)C2CC3=O`: the TGI in assay [1], in [2], in assay [3], in assay [4], in [5] and in assay [6] was over 100 µM each time. In addition, the concentration for total growth inhibition (TGI) in assay [7], in assay [8], in assay [9] and in assay [10] was over 100 µM throughout.

With `COc1ccc(/C=C/C=C2C(=O)NC(=S)NC2=O)cc1`, the concentration for total growth inhibition (TGI) came out at 34.6 µM in [1]; 21 µM in assay [2]; 46.2 µM in [3]; 18.2 µM in assay [4]; 21.3 µM in assay [5]; 43.8 µM in assay [6]. The total growth inhibition concentration (TGI) in [7] was 19.6 µM; in assay [8], 14.1 µM; in assay [9], 25.4 µM; in assay [10], 5.69 µM.

On to `Nc1c2c(nc3ccccc13)-c1ccccc1CCC2`, for which the TGI in [1] is 33.4 µM; in assay [2], 37.8 µM; in assay [3] it was 29.9 µM; in [4], 33.5 µM; in [5], 12.2 µM; in assay [6], 36.3 µM. In addition, the TGI was 25.9 µM in assay [7], 27.5 µM in assay [8], 25.9 µM in assay [9] and 49.1 µM in assay [10].

As to `CCCCOP(=O)(OCCCC)C(NS(=O)(=O)c1ccccc1)(C(=O)OCC)C(F)(F)F` (stereo not given), the TGI was 93.2 µM in assay [1]; over 100 µM in [2]; over 100 µM in [3]; 66.1 µM in assay [4]; over 100 µM in assay [5]; over 100 µM in assay [6]. Moreover, the total growth inhibition concentration (TGI) was over 100 µM in assay [7], 45.4 µM in assay [8], 71.8 µM in assay [9] and 72.5 µM in assay [10].

As to `COC(=O)/C=C1\C(=O)N(C(C)=O)c2ccccc21`, the TGI was 29.2 µM in [1]; 28.9 µM in assay [2]; over 57.6 µM in assay [3]; 47.6 µM in [4]; 31.4 µM in assay [5]; over 54.9 µM in assay [6]. The TGI in [7] turned out to be 20.6 µM; in assay [8], 27.5 µM; in assay [9] it was 16.8 µM; in assay [10], 10.1 µM.

For the compound `CC(C)=CCC[C@@H](C)c1c(O)c(O)c(C)c2nc3ccccc3nc12`, the total growth inhibition concentration (TGI) was 13.2 µM in assay [1]; 8.61 µM in assay [2]; 9.15 µM in [3]; over 20.2 µM in assay [4]; 22.2 µM in assay [5]; 11.3 µM in assay [6]. Besides, the TGI in assay [7] came out at 17.5 µM; in assay [8], 7.53 µM; in [9] it was 5.11 µM; in assay [10], 0.8 µM.

On to `CC1CN=C(c2ccc3c(c2)Cc2cc(C4=NCC(C)N4)ccc2-3)N1` (stereo not given), for which the total growth inhibition concentration (TGI) in assay [1] is 56 µM; in [2], over 100 µM; in assay [3] it was over 100 µM; in assay [4] it was 98.7 µM; in assay [5] it was 39.2 µM; in assay [6], over 100 µM. In addition, the total growth inhibition concentration (TGI) in assay [7] was over 100 µM; in assay [8], 46 µM; in assay [9], over 100 µM; in assay [10] it was over 100 µM.

Regarding `CCOC(=O)n1c2ccccc2c2c(O)c(OC)c3c(c21)C(=O)NC3=O`, the concentration for total growth inhibition (TGI) in [1], in [2], in assay [3], in assay [4], in [5] and in [6] was over 100 µM in each case. Moreover, the total growth inhibition concentration (TGI) in [7] is 84.3 µM; in [8], 95.4 µM; in assay [9] it was over 100 µM; in assay [10], over 100 µM.

For the compound `COC(=O)c1ccc2c(c1)CC1(C2)Cc2ccc3c(c2C1)CCC3` (stereo not given), the total growth inhibition concentration (TGI) is 40.9 µM in assay [1]; over 100 µM in assay [2]; over 100 µM in assay [3]; 74.3 µM in [4]; over 100 µM in assay [5]; 51.9 µM in assay [6]. The TGI is 55.4 µM in [7], 60.5 µM in assay [8], over 100 µM in [9] and over 100 µM in assay [10].

In the case of `O=C1NC(N2CCOCC2)=N/C1=C\c1ccccc1`, the TGI in assay [1], in [2], in [3], in assay [4], in assay [5] and in assay [6] was over 100 µM each time. Besides, the TGI in assay [7], in assay [8], in assay [9] and in assay [10] was over 100 µM in each case.

Regarding `Cc1cc([C@H](C#N)c2nc3ccccc3s2)nc(Cl)n1`, the concentration for total growth inhibition (TGI) in assay [1] is 9.08 µM; in assay [2], 15 µM; in assay [3] it was over 100 µM; in [4] it was 15.6 µM; in assay [5] it was 16.3 µM; in [6] it was over 100 µM. Also, the TGI in [7] is 21.4 µM; in assay [8], 17 µM; in assay [9], 8.76 µM; in [10], over 100 µM.

As for `Clc1ccc2nc3c(c(-c4ccccc4)nn3-c3ccccc3)c(-c3ccccc3)c2c1`, the TGI in assay [1], in assay [2], in assay [3], in assay [4], in [5] and in assay [6] was over 100 µM throughout. Also, the TGI in assay [7], in [8], in assay [9] and in assay [10] was over 100 µM each time.

Turning to `CO/C=C(/C(=O)OC)c1ccccc1[C@H]1C[C@@H]1c1ccc(OC)cc1`, the TGI is 68.8 µM in assay [1]; over 100 µM in assay [2]; 65.6 µM in assay [3]; 58.5 µM in assay [4]; 42.7 µM in [5]; over 100 µM in assay [6]. In addition, the TGI is 38.7 µM in assay [7], 46.8 µM in assay [8], over 100 µM in [9] and over 100 µM in assay [10].

For `CC(C)OCC(O)COc1cc(=O)oc2ccccc12` (stereo not given), the concentration for total growth inhibition (TGI) in assay [1], in [2], in assay [3], in [4], in assay [5] and in assay [6] was over 100 µM throughout. Moreover, the concentration for total growth inhibition (TGI) in assay [7], in [8], in assay [9] and in assay [10] was over 100 µM in each case.

For `CC(C)CC(NC(=O)C(CCC(=O)OCc1ccccc1)NC(=O)OC(C)(C)C)C(=O)NC(COCc1ccccc1)C(=O)NC(Cc1ccccc1)C(=O)O` (stereo not given) (Boc-E(OBn)LS(Bn)F-OH; configuration not given here), the concentration for total growth inhibition (TGI) in [1], in [2], in assay [3], in [4], in [5] and in assay [6] was over 100 µM in each case. For the same compound, the TGI in assay [7], in assay [8] and in [9] was over 100 µM each time.

For `CC(=O)Nc1ccc(S(=O)(=O)/N=c2/sc(S(N)(=O)=O)nn2C)cc1`, the concentration for total growth inhibition (TGI) in assay [1], in [2], in assay [3], in assay [4], in assay [5] and in assay [6] was over 100 µM each time. The TGI in assay [7], in assay [8] and in assay [9] was over 100 µM each time.
